Source: patent US7919577B2, “Adrenocorticotropic hormone analogs and related methods” (Colorado Seminary, priority 2004, dated 2011)
No end group written: not given here.

Tested on: dexamethasone-suppressed male FVB/N mice
Test: in vivo Serum Corticosteroid Induction Assay (Example 1)
Design: species or system mouse
Settings: relative to unmodified mACTH(1-24); 1 μg subcutaneously to dexamethasone-suppressed mice; blood one hour later
Method: An in vivo Serum Corticosteroid Induction Assay measures the level of corticosteroid or corticosterone in the blood stream of a subject. More specifically, the in vivo Serum Corticosteroid Induction Assay can include the following steps: first, an agent to suppress endogenous ACTH production was administered to a mouse subject, such as an intraperitoneal injection of dexamethasone; second, after waiting a suitable period of time for suppression of endogenous ACTH production (e.g., 1.5-2.0 hours), a test compound can be administered to the mouse by a suitable method, such as intraperitoneal or subcutaneous injection; and third, after waiting a suitable period of time (e.g., 1 hour) for action of the injected test compound, a blood sample can be taken from the subject and the level of serum corticosterone can be determined by a suitable method, such as a competitive radioimmunoassay using ^125I RIA kit (ICN, Costa Mesa, Calif.). Example 1 describes a murine in vivo Serum Corticosteroid Induction Assay in detail.
The corticosteroid or corticosterone secretion induced in vivo by an ACTH analog compound was compared to the level of corticosteroid secretion produced by an unmodified ACTH compound by measuring blood serum corticosteroid after administering either the ACTH or ACTH analog as test compounds. […] ACTH analog compositions with decreased function were identified by measuring corticosterone levels using standard radioimmunoassay (RIA) analysis on blood samples collected one hour after administering the mACTH(1-24) or ACTH analog compound to dexamethasone-suppressed mice. In FIG. 1, the potency of various ACTH analog peptides is expressed as percent induction of corticosterone, with mouse ACTH being 100%. […] The percent of corticosterone induction 12 of ACTH analog Compounds in Samples 2-10 are shown as a percentage of the concentration of serum corticosterone 20 measured for unmodified mACTH(1-24) in the in vivo Serum Corticosteroid Adrenal Induction Assay. The structural modifications and measured percentage reduction in serum measured for Samples 2-10 in FIG. 1 are shown in Table 3 below.
The in vivo Serum Corticosteroid Induction Assay was performed according the following method. First, two to three month-old male FVB/N mice from our colony, five per group, were injected intraperitoneally with dexamethasone (0.4 mg/0.1 ml PBS per mouse; Sigma, St. Louis, Mo.) to suppress their endogenous ACTH production. See Hajos, G T et al., “Studies of the potency of polypeptides with ACTH action by a new method based on continuous measurement of plasma corticosterone,” Steroids Lipids Res 3:225-228 (1972), Costa, J L, et al., “Mutational analysis of evolutionarily conserved ACTH residues,” Gen Comp Endocrinol, 136:12-16 (2004), and Karpac, J, et al., “Development, Maintenance, and Function of the Adrenal Gland in Early Postnatal Pro-opiomelanocortin Null Mutant Mice,” Endocrinology (2005), published online ahead of print Feb. 24, 2005, all of which are incorporated herein by reference.
Second, ninety to one hundred twenty minutes later, the dexamethasone-suppressed mice were injected subcutaneously between the shoulder blades with either unmodified mACTH(1-24) or one of several ACTH analog peptide compounds (1 μg/0.1 mL PBS/0.5% BSA), or with vehicle alone (control) (0.1 mL PBS/0.5% BSA). The following ACTH analog peptide compounds were administered to separate mice: 1: murine ACTH1-24; 2: V26F,E30K; 3: P19W,K21E,Y23R; 4: E30K,P36R; 5: ALA19-24; 6: V26F,P36R; 7: P19W, K21E; 8: P19W,K21A,delY23; 9: P19W,K21A; 10: KRRP16-19RAAW (AT814) (SEQ ID NO:20).
Third, one hour later, blood was collected within less than 1 minute from a small incision in the tail, and serum was flash-frozen and stored at −80° C. until assayed. Serum corticosterone was determined by competitive radioimmunoassay (^125I RIA kit; ICN, Costa Mesa, Calif.) according to the manufacturer's recommendations. One microliter of serum was used per assay sample. […]

## N-Ser^1-Tyr-Ser-Met-Glu^5-His-Phe-Arg-Trp-Gly^10-Lys-Pro-Val-Gly-Lys^15-Arg-Ala-Ala-Trp-Val^20-Lys-Val-Tyr-Pro-Ac (SYSMEHFRWGKPVGKRAAWVKVYP; not fully specified; printed as N-Ser1-Tyr-Ser-Met-Glu5-His-Phe-Arg-Trp-Gly10-Lys-Pro-Val-Gly-Lys15-Arg-Ala-Ala-Trp-Val20-Lys-Val-Tyr-Pro-Ac) [AT814]
  Percent reduction in serum corticosteroid: 100%
